Source: the NIST ThermoML archive (doi:10.1021/acs.jced.6b00180)
Numbers after ± are expanded uncertainties.

What was measured:
[1] = refractive index (Na D-line) (dimensionless); conditions: 293.15 K; 101.33 kPa; Liquid; Standard Abbe refractometry
[2] = Liquid, Ebulliometric method (Recirculating still)
[3] = Boiling temperature at pressure P; conditions: 101.33 kPa; Liquid; Ebulliometric method (Recirculating still)

refractive index [1] | Boiling temperature at pressure P [3] [°C] | Structure (SMILES) | further results
1.3876 ± 0.0005 |  | CC=C(C)C [2-methyl-2-butene] | vapor or sublimation pressure ([2]; 341.15 K): 250 ± 13 kPa
1.3535 ± 0.0005 |  | CCC(C)C [2-methylbutane] | vapor or sublimation pressure ([2]; 330.05 K): 250 ± 13 kPa
1.4064 ± 0.0005 |  | C1CCCC1 [cyclopentane] | vapor or sublimation pressure ([2]; 352.85 K): 250 ± 13 kPa
1.4224 ± 0.0005 |  | C1=CCCC1 [cyclopentene] | vapor or sublimation pressure ([2]; 347.35 K): 250 ± 13 kPa
1.3613 ± 0.0005 | 78.4 ± 1 | CCO [ethanol] | vapor or sublimation pressure ([2]; 351.55 K): 101.3 ± 5.1 kPa
1.3748 ± 0.0005 |  | CCCCCC [hexane] | 
1.3286 ± 0.0005 | 64.7 ± 1 | CO [methanol] | 
1.3578 ± 0.0005 |  | CCCCC [pentane] | vapor or sublimation pressure ([2]; 338.35 K): 250 ± 13 kPa

Structure (SMILES) | refractive index [1] | Boiling temperature at pressure P [3] [°C] | further results
C=CC(=C)C [2-methyl-1,3-butadiene] | 1.4218 ± 0.0005 |  | vapor or sublimation pressure ([2]; 336.35 K): 250 ± 13 kPa
CC(C)=O [acetone] | 1.3586 ± 0.0005 | 56.2 ± 1 | vapor or sublimation pressure ([2]; 329.35 K): 101.3 ± 5.1 kPa
